A short description of series [1]: UV absorption spectrum in ethanol. The class given is physicochemical. As to the method:
2,4,6-Tris(diethyl 4′-aminobenzalmalonate)-s-triazine (1 g, […]) (Example 1 of Application EP 0,507,691) is dissolved in 5 ml of trimethylsilylethyl alcohol while sparging with nitrogen. The mixture is subsequently heated at reflux for 25 hours with 0.2 g of para-toluenesulphonic acid. After addition of 30 ml of dichloromethane, the organic phase is washed with water and then with an aqueous sodium bicarbonate solution, and dried. It is concentrated under reduced pressure. The residue obtained is purified by chromatography on a silica column (eluent: heptane/AcOEt 85/15). 0.35 g (Yield 32%) of the derivative of Example 2 is collected in the form of a pale yellow gum: • UV (ethanol) λ max=355 nm; ε max=125 250;E1%=965. […]

Series [2] in a line: Photostability of a film of 5% solution in Miglyol 812 under Oriel solar simulator, HPLC quantification. Format: physicochemical. The conditions noted are these: 5% by weight in Miglyol 812, 1 mg/cm^2 film, irradiated one hour, solar simulator UV-A=14.2 mW/cm^2, UV-B=0.41 mW/cm^2. As to the method: The two products were dissolved at 5% by weight in the oil Miglyol 812. Approximately 10 mg of oily solution are spread over 10 cm^2 at the surface of a hollow disc of frosted glass; the amount is determined by weighing.
The films of the oily solutions are irradiated for one hour using an Oriel solar simulator (UV-A=14.2 mW/cm^2; UV-B=0.41 mW/cm^2), then extracted with 10 ml of ethanol comprising 10% of isopropanol and subjected to ultrasound for 5 min. The products are quantified by HPLC of the extracts.
HPLC conditions: column: UP5WOD-25QS, 250×4.6 mm, 5 μm, Interchrom; eluent: methanol (Comparative Example 1) and 96% of methanol+4% of water (Example 1); flow rate: 1 ml/min; volume injected: 10 μl; detection: diode array; rt (min): 5.2 (Comparative Example 1) and 13.8 (Example 1).
The degrees of loss are determined by comparison of the amounts of product present in the irradiated samples and in the non-irradiated controls prepared simultaneously and treated in the same way (means over 3 samples; S=surface/mg solution): % loss=100×(So−Sirr)/So

The source of these data is US8221728B2, “Silanic para-aminobenzalmalonate-substituted s-triazine compounds and photoprotective compositions comprised thereof” (L'Oreal, priority 2004, dated 2012).

“And” between values parts separate entries of the source, which are not always exact repeats. Identical values can stand only once.

For the compound “2,4,6-tris(di(trimethylsilylmethyl) 4′-aminobenzalmalonate)-s-triazine [Example 1]”, in series [1], the E1% is on record as 987, the ε max was 118 970 and the λ max is on record as 355 nm.
Regarding `CC(C)COC(=O)C(=Cc1ccc(Nc2nc(Nc3ccc(C=C(C(=O)OCC(C)C)C(=O)OCC(C)C)cc3)nc(Nc3ccc(C=C(C(=O)OCC(C)C)C(=O)OCC(C)C)cc3)n2)cc1)C(=O)OCC(C)C` [Compound (prior art), 2,4,6-Tris(diisobutyl 4′-aminobenzalmalonate)-s-triazine], the “% of disappearance (% loss)” value in series [2] is 11% and 10% and 9%.
As for `C[Si](C)(C)CCOC(=O)C(=Cc1ccc(Nc2nc(Nc3ccc(C=C(C(=O)OCC[Si](C)(C)C)C(=O)OCC[Si](C)(C)C)cc3)nc(Nc3ccc(C=C(C(=O)OCC[Si](C)(C)C)C(=O)OCC[Si](C)(C)C)cc3)n2)cc1)C(=O)OCC[Si](C)(C)C` [Example 2, 2,4,6-tris(di(trimethylsilylethyl) 4′-aminobenzalmalonate)-s-triazine], in series [1], the E1% turned out to be 965, the ε max was 125 250 and the λ max worked out at 355 nm.
